# Experimental data as given in ChEMBL document CHEMBL4725455, “Use of Dihydroorotate Dehydrogenase Inhibitors for Treatment of Autoimmune Diseases and Cancer” (ACS Med Chem Lett, 2020).
# Molecular target: Dihydroorotate dehydrogenase (quinone), mitochondrial (Homo sapiens, UniProt Q02127)
# Test: Inhibition of DHODH (unknown origin) using L-dihydroorotic acid as substrate preincubated for 30 mins followed by substrate addition measured every 10 mins in presence of decylubiquinone by DCIP dye based coupled enzyme assay
# Sequence of Dihydroorotate dehydrogenase (quinone), mitochondrial (Q02127 whole entry): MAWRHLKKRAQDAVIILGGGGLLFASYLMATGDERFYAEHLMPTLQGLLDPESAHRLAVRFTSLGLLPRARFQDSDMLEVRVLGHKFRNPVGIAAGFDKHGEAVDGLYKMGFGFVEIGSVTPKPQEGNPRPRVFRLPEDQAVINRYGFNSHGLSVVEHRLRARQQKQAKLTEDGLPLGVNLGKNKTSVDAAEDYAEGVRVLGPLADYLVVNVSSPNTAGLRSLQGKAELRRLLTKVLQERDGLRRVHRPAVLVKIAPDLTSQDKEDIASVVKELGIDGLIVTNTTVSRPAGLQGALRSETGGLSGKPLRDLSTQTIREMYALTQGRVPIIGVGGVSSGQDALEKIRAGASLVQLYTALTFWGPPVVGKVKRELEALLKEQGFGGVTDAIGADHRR
row,Compound,IC50
1,Cc1nc2c(C(=O)O)cc(-c3ccc(-c4ccccc4CN4CCCC4)cc3)cc2[nH]1,1 nM
2,Cc1nc2c(C(=O)O)cc(-c3c(F)c(F)c(-c4ccc(CN5CCOCC5)cc4)c(F)c3F)cc2[nH]1,10 nM
3,Cc1nc2c(C(=O)O)cc(-c3c(F)c(F)c(-c4ccc(CN5CCCC(F)(F)C5)cc4)c(F)c3F)cc2[nH]1,1 nM
4,Cc1nc2c(C(=O)O)cc(-c3ccc(-n4c(C)ccc4C)cc3)cc2[nH]1,1 nM
5,Cc1nc2c(C(=O)O)cc(-c3ccc(-c4ccc(O)cc4)cc3)cc2[nH]1,10 nM
6,Cc1nc2c(C(=O)O)cc(-c3ccc(-c4ccccc4)cc3)cc2[nH]1,10 nM
7,Cc1cccc(-c2ccc(-c3cc(C(=O)O)c4nc(C)[nH]c4c3)cc2)c1,1 nM
8,Cc1nc2c(C(=O)O)cc(-c3c(F)c(F)c(-c4ccccc4)c(F)c3F)cc2[nH]1,1 nM
